Source: patent US6461997B1, “Triazole sulfones having herbicidal activity” (Monsanto Technology LLC, priority 1999, dated 2002)

Assays:
[1] = system: PANMI (wild proso millet); experiment: Pre-emergence herbicidal activity, warm season; format: in vivo, Panicum miliaceum; details: GR80 = lowest tested rate (300, 100, 30, 10 g/ha) with 80% or greater inhibition; approx. 14 days after treating; 30/21° C.
Outline: (§1)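 GR80 values derive from percent inhibition relative to untreated plants, read roughly 14 days after sowing and pre-emergence soil-surface treatment (compound in 50:50 acetone/water; rates typically 10, 30, 100, 300 g/ha). Warm-season weeds grew at 30/21° C day/night, cool-season ones at 18/13° C; an asterisk marks activity without reaching 80% at the highest rate.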

[2] = system: IPOSS (annual morningglory); experiment: Pre-plant incorporated (PPI) herbicidal activity, warm season; format: in vivo, Ipomoea spp.; details: PPI application
Experimental: (§2) In another set of tests, the pre-plant incorporated (PPI) activity of compounds of this invention was evaluated on the same species as for the pre-emergence tests described above. In the PPI tests the following procedure, designed to simulate PPI application, was used.
(§3) A pre-prepared topsoil mixture (described above) was placed in a pot and compacted to a depth of 1.0 to 1.25 cm from the top of the pot. Seeds of each of several monocotyledonous and dicotyledonous annual plant species were placed on top of the soil. A sufficient quantity of soil to cover the seeds and level fill the pot was weighed into an open container. A known amount of the test compound was dissolved or suspended in an organic solvent and applied by spraying to this cover soil. The cover soil was thoroughly mixed to distribute the test compound throughout the cover soil, and was then applied as a cover layer over the seeds. Untreated soil was used as a cover layer for control pots. After treatment the plants were placed in a greenhouse where they received 0.64 cm of overhead irrigation. All subsequent watering consisted of a light overhead mist and/or subirrigation as needed for germination and growth. Tables 9 and 10 below relate to warm season plant species which were placed after pre-emergence treatment in a greenhouse with a 30/21° C. day/night temperature regime. Tables 11 and 12 below relates to cool season plant species placed after pre-emergence treatment in a greenhouse or growth chamber with an 18/13° C. day/night temperature regime. Only the compounds of Examples 1, 6, 8, 11, 13 and 15-20 were included in PPI tests.
(§4) Approximately 14 days after planting and treating, the plants were observed and herbicidal efficacy recorded as percent inhibition by comparison with untreated plants.

[3] = system: CIRAR (canada thistle (seedling)); experiment: as above; format: in vivo, Cirsium arvense; details: GR80 = lowest tested rate with 80% or greater inhibition, approx. 14 days after treating, 30/21° C.
Experimental: as §2, §3, §4

barley (HORVX) = experiment: Selectivity test, PPI, cool season crop; format: in vivo, Hordeunm vulgare; details: PPI application
Experimental: as §3, §4
Additional pre-emergence and PPI tests were conducted by the procedures described above, on warm and cool season weed species in the presence of crop species, to assess herbicidal selectivity. Crop species included in warm season tests were corn (Zea mays, ZEAMX), rice (Oryza sativa, ORYSA) and soybean (Glycine max, GLYMX). Crop species included in cool season tests were wheat (Triticum aestivum, TRZAW), barley (Hordeunm vulgare, HORVX) and oilseed rape (Brassica napus, BRSNS).
Tables 15 and 16 relate to pre-emergence and PPI tests respectively on warm season species. Table 17 relates to pre-emergence tests on cool season species.

POROL (common purslane) = experiment: Pre-plant incorporated (PPI) herbicidal activity, warm season; format: in vivo, Portulaca oleracea; details: GR80 = lowest tested rate with 80% or greater inhibition, approx. 14 days after treating, 30/21° C.
Experimental: as §2, §3, §4

CONAR (field bindweed) [4] = experiment: as above; format: in vivo, Convolvulus arvensis; details: GR80 = lowest tested rate with 80% or greater inhibition, approx. 14 days after treating, 30/21° C.
Experimental: as §2, §3, §4

[5] = system: AGRRE (quackgrass (seedling)); experiment: Pre-emergence herbicidal activity, cool season; format: in vivo, Elymus repens; details: GR80 = lowest tested rate (300, 100, 30, 10 g/ha) with 80% or greater inhibition; approx. 14 days after treating; 18/13° C.
Outline: as §1

CONAR (field bindweed) [6] = experiment: Pre-emergence herbicidal activity, warm season; format: in vivo, Convolvulus arvensis; details: GR80 = lowest tested rate (300, 100, 30, 10 g/ha) with 80% or greater inhibition; approx. 14 days after treating; 30/21° C.
Outline: as §1

AVEFA (wild oat) = experiment: Pre-emergence herbicidal activity, cool season; format: in vivo, Avena fatua; details: GR80 = lowest tested rate (300, 100, 30, 10 g/ha) with 80% or greater inhibition; approx. 14 days after treating; 18/13° C.
Outline: as §1

KCHSC (kochia) = experiment: Pre-plant incorporated (PPI) herbicidal activity, cool season; format: in vivo, Kochia scoparia
Experimental: as §2, §3, §4

BROTE (downy brome) = experiment: Pre-emergence herbicidal activity, cool season; format: in vivo, Bromus tectorum; details: GR80 = lowest tested rate (300, 100, 30, 10 g/ha) with 80% or greater inhibition; approx. 14 days after treating; 18/13° C.
Outline: as §1

ABUTH (velvetleaf) = experiment: Pre-emergence herbicidal activity, warm season; format: in vivo, Abutilon theophrasti; details: GR80 = lowest tested rate (300, 100, 30, 10 g/ha) with 80% or greater inhibition; approx. 14 days after treating; 30/21° C.
Outline: as §1

LOLMG (annual ryegrass) = experiment: Pre-emergence herbicidal activity, cool season; format: in vivo, Lolium multiflorum; details: GR80 = lowest tested rate (300, 100, 30, 10 g/ha) with 80% or greater inhibition; approx. 14 days after treating; 18/13° C.
Outline: as §1

Q: What does the source list for `CCN(CC)C(=O)n1cnc(S(=O)(=O)C(F)(F)SCC(=O)OC)n1` [Example 11]?
A: Pre-emergence activity (GR80) PANMI [1]: 300 g/ha; Percent inhibition IPOSS ([2]; 10 g/ha): 0%; Percent inhibition IPOSS ([2]; 30 g/ha): 0%; Percent inhibition IPOSS ([2]; 100 g/ha): 0%; Percent inhibition IPOSS ([2]; 300 g/ha): 0%; Percent inhibition IPOSS ([2]; 900 g/ha): 0%; PPI activity (GR80) CIRAR [3]: 100 g/ha; Percent inhibition HORVX (barley (HORVX); 10 g/ha): 0%; Percent inhibition HORVX (barley (HORVX); 30 g/ha): 0%; Percent inhibition HORVX (barley (HORVX); 100 g/ha): 0%; Percent inhibition HORVX (barley (HORVX); 300 g/ha): 0%; Percent inhibition HORVX (barley (HORVX); 900 g/ha): 10%; PPI activity (GR80) POROL (POROL (common purslane)): 300 g/ha; PPI activity (GR80) CONAR (CONAR (field bindweed) [4]): 100 g/ha

Q: With `CCN(CC)C(=O)n1cnc(S(=O)(=O)C(F)(F)C(F)(F)SC)n1` [Example 14] as the compound, how does the “Pre-emergence activity (GR80) AGRRE” value [5] read?
A: Its value is “* (activity observed, at least at highest rate, but <80% inhibition)”.

Q: What about the “Pre-emergence activity (GR80) CONAR” value (CONAR (field bindweed) [6]) of the same compound?
A: The value was “* (activity observed, at least at highest rate, but <80% inhibition)”.

Q: And the “Pre-emergence activity (GR80) PANMI” value [1]?
A: The value was 100 g/ha.

Q: And the “Pre-emergence activity (GR80) AVEFA” value (AVEFA (wild oat))?
A: The value was 300 g/ha.

Q: Which inhibition at 10 g/ha (KCHSC (kochia); Bassia scoparia, weed, PPI application, 10 g/ha, read-out: Percent inhibition KCHSC) does the source give for `C=CCC(F)(F)S(=O)(=O)c1ncn(C(=O)N(CC)CC)n1` [Example 17, 1-(N,N-diethylcarbamoyl)-3-[(1,1-difluoro-3-butenyl)sulfonyl]-1,2,4-triazole] here?
A: The inhibition at 10 g/ha was 70%.

Q: And the inhibition at 30 g/ha (KCHSC (kochia); Bassia scoparia, weed, PPI application, 30 g/ha, read-out: Percent inhibition KCHSC)?
A: Its inhibition at 30 g/ha is 100%.

Q: And the inhibition at 100 g/ha (KCHSC (kochia); Bassia scoparia, weed, PPI application, 100 g/ha, read-out: Percent inhibition KCHSC)?
A: Its inhibition at 100 g/ha is 100%.

Q: And the inhibition at 300 g/ha (KCHSC (kochia); Bassia scoparia, weed, PPI application, 300 g/ha, read-out: Percent inhibition KCHSC)?
A: The inhibition at 300 g/ha was 100%.

Q: And the inhibition at 900 g/ha (KCHSC (kochia); Bassia scoparia, weed, PPI application, 900 g/ha, read-out: Percent inhibition KCHSC)?
A: The inhibition at 900 g/ha was 100%.

Q: What about the “PPI activity GR80, KCHSC” value (KCHSC (kochia); pre-plant incorporated, lowest tested rate with 80% or greater inhibition, about 14 days) of the same compound?
A: Its value is 30 g/ha.

Q: What about the “Pre-emergence activity (GR80) BROTE” value (BROTE (downy brome)) of the same compound?
A: Its value is 100 g/ha.

Q: What about the “Pre-emergence activity (GR80) ABUTH” value (ABUTH (velvetleaf)) of the same compound?
A: Its value is 300 g/ha.

Q: And the “Pre-emergence activity (GR80) LOLMG” value (LOLMG (annual ryegrass))?
A: The value was 100 g/ha.

Q: And the “Pre-emergence activity (GR80) PANMI” value [1]?
A: Its value is 100 g/ha.

Q: What about the “Pre-emergence activity (GR80) AVEFA” value (AVEFA (wild oat)) of the same compound?
A: Its value is 100 g/ha.

Q: What about the “PPI activity (GR80) CIRAR” value [3] of the same compound?
A: The value was 300 g/ha.

Q: What about the inhibition at 10 g/ha (barley (HORVX); Hordeum vulgare, 10 g/ha, read-out: Percent inhibition HORVX) of the same compound?
A: The inhibition at 10 g/ha was 0%.

Q: And the inhibition at 30 g/ha (barley (HORVX); Hordeum vulgare, 30 g/ha, read-out: Percent inhibition HORVX)?
A: The inhibition at 30 g/ha was 0%.

Q: What about the inhibition at 100 g/ha (barley (HORVX); Hordeum vulgare, 100 g/ha, read-out: Percent inhibition HORVX) of the same compound?
A: Its inhibition at 100 g/ha is 10%.

Q: What about the inhibition at 300 g/ha (barley (HORVX); Hordeum vulgare, 300 g/ha, read-out: Percent inhibition HORVX) of the same compound?
A: The inhibition at 300 g/ha was 30%.

Q: And the inhibition at 900 g/ha (barley (HORVX); Hordeum vulgare, 900 g/ha, read-out: Percent inhibition HORVX)?
A: The inhibition at 900 g/ha was 60%.

Q: And the “PPI activity (GR80) POROL” value (POROL (common purslane))?
A: The value was 30 g/ha.

Q: And the “PPI activity (GR80) CONAR” value (CONAR (field bindweed) [4])?
A: The value was “* (activity observed, at least at highest rate, but <80% inhibition)”.
